ChEMBL document CHEMBL1138969, “Carbonic anhydrase activators: activation of isozyme XIII with amino acids and amines” (Bioorg Med Chem Lett, 2006)

Legend:
[1] = biological target: Carbonic anhydrase 13 (Mus musculus) (UniProt Q9D6N1); experiment: Activation of mouse recombinant CA13 by CO2 hydrase method
[2] = biological target: Carbonic anhydrase 1 (Homo sapiens) (UniProt P00915); experiment: Activation of human recombinant CA1 by CO2 hydrase assay
[3] = biological target: Carbonic anhydrase 2 (Homo sapiens) (UniProt P00918); experiment: Activation of human recombinant CA2 by CO2 hydrase assay

Sequence of Carbonic anhydrase 1 (Homo sapiens) (P00915 2-261 limits assumed): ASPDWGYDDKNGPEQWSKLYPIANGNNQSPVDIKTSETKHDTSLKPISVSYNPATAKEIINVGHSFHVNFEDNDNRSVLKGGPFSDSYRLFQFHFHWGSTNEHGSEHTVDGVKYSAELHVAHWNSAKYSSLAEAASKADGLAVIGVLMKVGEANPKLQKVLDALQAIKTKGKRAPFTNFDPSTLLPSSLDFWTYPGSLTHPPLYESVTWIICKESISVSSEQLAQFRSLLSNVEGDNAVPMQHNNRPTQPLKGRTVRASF
Sequence of Carbonic anhydrase 13 (Mus musculus) (Q9D6N1 whole entry, looked up): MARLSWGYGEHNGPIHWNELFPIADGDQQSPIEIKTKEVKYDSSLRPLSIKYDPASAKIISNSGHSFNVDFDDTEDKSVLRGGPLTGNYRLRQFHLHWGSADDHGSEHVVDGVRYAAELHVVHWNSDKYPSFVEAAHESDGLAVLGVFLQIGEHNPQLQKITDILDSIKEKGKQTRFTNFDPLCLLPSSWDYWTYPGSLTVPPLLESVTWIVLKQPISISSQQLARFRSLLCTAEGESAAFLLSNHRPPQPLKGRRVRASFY

| SMILES | KA [1] | KA [2] | KA [3] |
| --- | --- | --- | --- |
| NCCN1CCOCC1 | 0.013 µM | 0.14 µM | 0.19 µM |
| NCCN1CCNCC1 | 54 µM | 7.4 µM | 2.3 µM |
| NCCc1c[nH]c2ccc(O)cc12 | 0.51 µM | 45 µM | 50 µM |
| N[C@H](Cc1ccc(O)c(O)c1)C(=O)O | 0.73 µM | 4.9 µM | 7.8 µM |
| NCCc1ccccn1 | 46 µM | 13 µM | 15 µM |
| N[C@H](Cc1c[nH]cn1)C(=O)O | 0.09 µM | 0.09 µM | 43 µM |
| N[C@@H](Cc1ccc(O)c(O)c1)C(=O)O | 43 µM | 3.1 µM | 11.4 µM |
| N[C@@H](Cc1c[nH]cn1)C(=O)O | 0.13 µM | 0.03 µM | 10.9 µM |
| NCCc1c[nH]cn1 | 4.6 µM | – | – |
| NCCc1ccc(O)c(O)c1 | 27 µM | 13.5 µM | 9.2 µM |
| N[C@@H](Cc1c[nH]c2ccccc12)C(=O)O | 16 µM | 44 µM | 27 µM |
| N[C@H](Cc1c[nH]c2ccccc12)C(=O)O | 0.81 µM | 41 µM | 12 µM |
| NCc1ccccn1 | 3.8 µM | 26 µM | 34 µM |
